From the supplement of paper PMC10307832

How the values were obtained:
Assay in all cases: relative viability (nuclei count vs DMSO), 5 days (fraction); higher = more cells survive
[1] = compound: CNC(=O)c1ccccc1Sc1ccc2c(/C=C/c3ccccn3)n[nH]c2c1 [Axitinib] + CS(=O)(=O)CCNCc1ccc(-c2ccc3ncnc(Nc4ccc(OCc5cccc(F)c5)c(Cl)c4)c3c2)o1 [Lapatinib] (partner 2 µM)
Summary of the method: (§1)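 Relative viability divides the nuclei count in treated wells by that in vehicle wells. Lung cancer cell lines were seeded in 1536-well plates, dosed by pin tool the next day, and fixed and stained after 5 days in one step with final 0.05% Triton X-100, 1% formaldehyde and 1 ug/ml Hoechst. Dosing was a single drug or a fixed anchor-drug dose plus five library-drug doses (not always all listed) in √10 steps, and values are medians of duplicate plates imaged at 4×.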

[2] = compound: Nc1nc(Nc2ccc3c(c2)CC[C@@H](N2CCCC2)CC3)nn1-c1cc2c(nn1)-c1ccccc1CCC2 [Bemcentinib] + Cc1nc(Nc2ncc(C(=O)Nc3c(C)cccc3Cl)s2)cc(N2CCN(CCO)CC2)n1 [Dasatinib] (partner 0.075 µM)
Summary of the method: as §1

[3] = compound: CNC(=O)c1ccccc1Sc1ccc2c(/C=C/c3ccccn3)n[nH]c2c1 [Axitinib] + C[C@@H](Oc1cc(-c2cnn(C3CCNCC3)c2)cnc1N)c1c(Cl)ccc(F)c1Cl [Crizotinib] (partner 1 µM)
Summary of the method: as §1

Cell Line	relative viability ([1]; first compound 0.005 µM)	relative viability ([1]; first compound 0.01581 µM)	relative viability ([1]; first compound 0.05 µM)	relative viability ([1]; first compound 0.1581 µM)	relative viability ([1]; first compound 0.5 µM)	relative viability ([2]; first compound 0.04 µM)	relative viability ([2]; first compound 0.1265 µM)	relative viability ([2]; first compound 0.4 µM)	relative viability ([2]; first compound 4 µM)	relative viability ([3]; first compound 0.005 µM)	relative viability ([3]; first compound 0.01581 µM)	relative viability ([3]; first compound 0.05 µM)	relative viability ([3]; first compound 0.1581 µM)	relative viability ([3]; first compound 0.5 µM)	relative viability ([2]; first compound 1.265 µM)
NCI-H1793	0.768	0.609	1.17	0.571	0.526	0.305	0.412	0.342	0.405						
HCC-78	0.865	0.724	0.642	0.701	0.47	0.403	0.201	0.433	0.363	0.345	0.35	0.301	0.338	0.375	
NCI-H322M	0.658	0.603	0.591	0.566	0.652	0.229	0.279	0.251	0.258	0.889	0.828	0.926	0.888	0.889	0.267
COR-L23	0.975	0.963	1.12	0.808	1.12	0.414	0.531	0.55	0.482	0.696	0.564	0.596	0.623	0.778	0.359
201T	1.01	1.03	1.07	1.05	0.966	0.559	0.676	0.591	0.57	1.06	1.05	1.05	1.07	1.02	0.613
NCI-H2347	0.979	0.971	0.966	1.04	0.922	0.322	0.288	0.327	0.308	0.644	1.04	0.739	0.743	0.85	0.269
LCLC-97TM1	0.74	1.17	1.01	0.927	0.725	0.851	0.818	0.736	0.975	0.433	0.524	0.265	0.377	0.314	0.851
NCI-H2126	0.765	0.745	0.771	0.71	0.729	0.559	0.67	0.646	0.699	1.08	0.998	0.928	0.97	1.02	0.71
NCI-H1944	0.86	0.802	0.907	0.827	0.68	0.206	0.202	0.214	0.2	1.05	1.24	1.03	1.15	1.18	0.204
HCC-15	0.884	0.872	0.831	0.836	0.848	0.628	0.696	0.708	0.732	0.907	0.84	0.793	0.696	0.825	0.669
NCI-H2405	1.09	1.06	1.34	1.07	1.02	0.194	0.22	0.21	0.165	0.822	0.972	0.831	0.754	0.852	0.215
COR-L 105	0.355	0.357	0.328	0.381	0.38	0.317	0.328	0.329	0.272	0.841	0.965	0.86	0.776	0.968	0.404
ABC-1	1.19	1.28	1.01	1.32	1.21	0.423	0.512	0.59	0.667	1.21	1.28	1.2	1.13	1.28	0.553
HCC-366	0.99	0.961	1.09	1.03	1.16	0.544	0.621	0.621	0.659	0.628	0.657	0.603	0.487	0.669	0.852
NCI-H1623						0.51	0.504	0.528	0.473						0.639
NCI-H2342						0.316	0.318	0.313	0.308						0.264
NCI-H2085	0.803	0.778	0.798	0.755	0.684	0.224	0.195	0.258	0.294	0.799	0.902	0.794	0.718	0.874	0.256
BEN	0.695	0.648	0.592	0.563	0.497	0.272	0.37	0.317	0.241	0.897	1.04	0.788	0.807	0.925	0.22
LCLC-103H						0.419	0.192	0.478	0.531	1.11	1.13	1	1.1	1.06	0.393
NCI-H520	0.902	0.778	0.771	0.751	0.785	0.197	0.194	0.257	0.23	0.72	0.829	0.734	0.542	0.776	0.206
NCI-H1975	1.02	0.841	0.899	0.871	0.953	0.344	0.424	0.432	0.354	1.13	1.05	1.15	0.931	1.08	0.386

Cell Line	relative viability ([1]; first compound 0.005 µM)	relative viability ([1]; first compound 0.01581 µM)	relative viability ([1]; first compound 0.05 µM)	relative viability ([1]; first compound 0.1581 µM)	relative viability ([1]; first compound 0.5 µM)	relative viability ([2]; first compound 0.04 µM)	relative viability ([2]; first compound 0.1265 µM)	relative viability ([2]; first compound 0.4 µM)	relative viability ([2]; first compound 4 µM)	relative viability ([3]; first compound 0.005 µM)	relative viability ([3]; first compound 0.01581 µM)	relative viability ([3]; first compound 0.05 µM)	relative viability ([3]; first compound 0.1581 µM)	relative viability ([3]; first compound 0.5 µM)	relative viability ([2]; first compound 1.265 µM)
NCI-H1355	0.976	1.08	0.994	1	0.893	0.723	0.778	0.829	0.841	1.13	1.06	1.1	0.948	1.29	0.778
IA-LM	0.83	0.884	0.781	0.747	0.788					0.95	0.737	1.05	1.04	0.982	
H3255	0.272	0.241	0.244	0.263	0.239	0.308	0.396	0.315	0.346	0.975	0.79	0.764	0.77	1	0.332
NCI-H1915	0.994	0.99	0.994	0.922	1	0.304	0.302	0.307	0.331	0.905	0.899	0.908	0.883	0.957	0.332
NCI-H2023	0.752	0.924	1.03	0.775	0.759	0.56	0.727	0.606	0.64	0.699	0.786	0.651	0.73	0.684	0.677
NCI-H3122	1.03	0.977	1.04	1.04	1.13		0.751	0.768	0.933	0.205	0.276	0.274	0.314	0.267	0.888
SK-MES-1	0.492	0.454	0.53	0.446	0.547	0.303	0.416	0.384	0.426	1.06	0.974	1.07	1.02	1.11	0.477
NCI-H1650	0.928	0.532	0.884	0.715	0.818	0.344	0.382	0.347	0.321	0.979	0.949	1.04	0.947	1.13	0.346
NCI-H2170	0.269	0.257	0.277	0.256	0.257	0.485	0.664	0.603	0.589	1.2	1.18	1.27	1.1	1.35	0.477
NCI-H441						0.536	0.773	0.862	0.609	0.69	0.797	0.654	0.794	0.853	0.649
HCC-44	1.08	1.02	1.01	1.09	1.01					0.898	0.834	0.841	0.792	0.869	
ChaGo-K-1						0.591	0.614	0.636	0.481	1.1	1.17	1.13	1.05	1.15	0.496
NCI-H1395	1.31	0.887	1.12	0.792	0.922	0.393	0.392	0.439	0.396						0.364
Calu-6	1.07	1.11	1.08	1.06	1.39					0.82	0.795	0.783	0.865	0.961	
EBC-1	0.218	0.218	0.172	0.239	0.221					0.22	0.213	0.192	0.202	0.195	
NCI-H1703	0.848	0.423	0.274	0.273	0.441					0.777	0.27	0.158	0.136	0.237	
SW 900						0.587	0.672	0.586	0.563						0.493
NCI-H1299	0.956	0.993	0.96	0.97	1.02					0.997	0.947	0.986	1	1.04	
NCI-H522						0.768	0.975	0.886	0.829						0.844
A549	0.896	1	0.997	0.902	1.01					0.763	0.734	0.776	0.49	0.744	
